# Source: patent US20170121344A1 (Siga Technologies, Inc., priority 2009, published 2017)
# System: Dengue-2 (Strain New Guinea C)
# Assay: Viral yield assay against Dengue-2 in Vero cells
# Assay type: cell-based, Dengue virus
# Details: Dengue virus, DENV2, Vero, 48 h, read-out: Activity (EC50 in μM) DENV-2
# In short: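 Vero cells were infected with dengue-2 at MOI 0.1, treated with compound (DMSO control), and kept at 37° C. They were harvested 48 hours post infection and yield was titered on Vero cells. EC50 came from the yield curve, and the other serotypes were run in a similar way.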
row,SMILES,EC50 [µM]
1,"COc1ccc(NC(=O)c2sc3nc(-c4ccc(F)cc4)ccc3c2N)cc1OC [Compound 619, 3-amino-N-(3,4-dimethoxyphenyl)-6-(4-fluorophenyl)thieno[2,3-b]pyridine-2-carboxamide]",< 5

# Same assay, conditions: Dengue virus, DENV2; viral yield assay, Vero cells, MOI 0.1, 48 hours post infection; read-out: Activity (EC50 in μM) DENV-2
row,SMILES,EC50 [µM]
1,"O=C(Nc1cccc(Cl)c1)c1sc2ncccc2c1O [Compound 381, N-(3-chlorophenyl)-3-hydroxy-thieno[2,3-b]pyridine-2-carboxamide]",5 to 25
2,"Nc1c(C(=O)Nc2ccccc2Br)sc2nc(-c3ccncc3)ccc12 [Compound 466, 3-amino-N-(2-bromophenyl)-6-(4-pyridyl)thieno[2,3-b]pyridine-2-carboxamide]",5 to 25
3,"Nc1c(C(=O)Nc2ccc3c(c2)OCO3)sc2nc(-c3ccc(F)cc3F)ccc12 [Compound 655, 3-amino-N-(1,3-benzodioxol-5-yl)-6-(2,4-difluorophenyl)thieno[2,3-b]pyridine-2-carboxamide]",< 5
4,"CC(=O)Nc1nc2sc(C(=O)Nc3ccc(Br)cc3)c(N)c2c(-c2ccco2)c1C#N [Compound 324, 6-acetamido-3-amino-N-(4-bromophenyl)-5-cyano-4-(2-furyl)thieno[2,3-b]pyridine-2-carboxamide]",< 5
5,"COc1cccc(-c2ccc3c(N)c(C(=O)Nc4cc(Cl)cc(Cl)c4)sc3n2)c1 [Compound 564, 3-amino-N-(3,5-dichlorophenyl)-6-(3-methoxyphenyl)thieno[2,3-b]pyridine-2-carboxamide]",< 5
6,"COc1cccc(-c2ccc3c(N)c(C(=O)Nc4ccccc4OC)sc3n2)c1 [Compound 504, 3-amino-N-(2-methoxyphenyl)-6-(3-methoxyphenyl)thieno[2,3-b]pyridine-2-carboxamide]",< 5
7,"Cc1ccc2c(N)c(C(=O)Nc3ccc(OC(F)(F)F)cc3)sc2n1 [Compound 457, 3-amino-6-methyl-N-[4-(trifluoromethoxy)phenyl]thieno[2,3-b] pyridine-2-carboxamide]",5 to 25
8,"COc1ccc(-c2ccc3c(N)c(C(=O)Nc4ccc(Br)c(C)c4)sc3n2)cc1OC [Compound 579, 3-amino-N-(4-bromo-3-methyl-phenyl)-6-(3,4-dimethoxyphenyl)thieno[2,3-b] pyridine-2-carboxamide]",< 5
9,"Nc1c(C(=O)Nc2cccc(C(F)(F)F)c2)sc2nc(C(F)(F)F)ccc12 [Compound 317, 3-amino-6-(trifluoromethyl)-N-[3-(trifluoromethyl)phenyl]thieno[2,3-b]pyridine-2-carboxamide]",< 5
10,"Nc1c(C(=O)Nc2ccc(Br)cc2)sc2nc(-c3ccc4c(c3)OCO4)ccc12 [Compound 474, 3-amino-6-(1,3-benzodioxol-5-yl)-N-(4-bromophenyl)thieno[2,3-b]pyridine-2-carboxamide]",< 5
11,"CCOc1cccc(NC(=O)c2sc3nc(-c4ccc(F)cc4)ccc3c2N)c1 [Compound 611, 3-amino-N-(3-ethoxyphenyl)-6-(4-fluorophenyl)thieno[2,3-b]pyridine-2-carboxamide]",< 5
12,CCN(C(=O)c1sc2nc(C)cc(C(F)(F)F)c2c1C)c1ccccc1 [Compound 406],< 5
13,"COc1ccc(Cl)cc1NC(=O)c1sc2nc(-c3ccc4c(c3)OCO4)ccc2c1N [Compound 594, 3-amio-6-(1,3-benzodioxol-5-yl)-N-(5-chloro-2-methoxy-phenyl)thieno[2,3-b] pyridine-2-carboxamide]",< 5
14,"CCOc1ccccc1NC(=O)c1sc2nc(-c3ccc(C)cc3)ccc2c1N [Compound 647, 3-amino-N-(2-ethoxyphenyl)-6-(p-tolyl)thieno[2,3-b]pyridine-2-carboxamide]",< 5
15,"COc1cccc(-c2ccc3c(N)c(C(=O)Nc4ccc(C)cc4C)sc3n2)c1 [Compound 554, 3-amino-N-(2,4-dimethylphenyl)-6-(3-methoxyphenyl)thieno[2,3-b]pyridine-2-carboxamide]",< 5
16,"Nc1cnc2sc(C(=O)Nc3nnc(-c4ccccc4)s3)c(N)c2c1 [Compound 290, 3,5-diamino-N-(5-phenyl-1,3,4-thiadiazol-2-yl)thieno[2,3-b]pyridine-2-carboxamide]",< 5

# Same assay, conditions: Dengue virus, Vero, 48 h, read-out: Activity (EC50 class) against Dengue-2 Virus in Vero cells
row,SMILES,EC50 [µM]
1,"COCc1cc(C)nc2sc(C(=O)NC3CCCCC3)c(N)c12 [Compound 176, 3-Amino-4-methoxymethyl-6-methyl-thieno[2,3-b]pyridine-2-carboxylic acid cyclohexylamide]",> 25
2,"COc1ccc(NC(=O)c2sc3nc(N4CCOCC4)c4c(c3c2N)CC(C)(C)OC4)cc1 [Compound 244, 1-Amino-8,8-dimethyl-5-morpholin-4-yl-8,9-dihydro-6H-7-oxa-3-thia-4-aza-cyclopenta[a]naphthalene-2-carboxylic acid (4-methoxy-phenyl)-amide]",> 25
3,"Cc1nc2sc(C(=O)Nc3ccc(Br)cc3)c(N)c2c(C)c1C [Compound 157, 3-Amino-4,5,6-trimethyl-thieno[2,3-b]pyridine-2-carboxylic acid (4-bromo-phenyl)-amide]",> 25
4,"Nc1c(C(=O)Nc2ccccc2F)sc2nc3c(cc12)CCCC3 [Compound 78, 3-Amino-5,6,7,8-tetrahydro-thieno[2,3-b]quinoline-2-carboxylic acid (2-fluoro-phenyl)-amide]",5 to 25
5,"Nc1c(C(=O)N2CCOCC2)sc2nc3c(cc12)CCCCC3 [Compound 139, (3-Amino-6,7,8,9-tetrahydro-5H-1-thia-10-aza-cyclohepta[f]inden-2-yl)-morpholin-4-yl-methanone]",> 25
6,"NC(=O)c1sc2nc3c(c(-c4ccco4)c2c1N)CCC3 [Compound 99, 3-Amino-4-furan-2-yl-6,7-dihydro-5H-cyclopenta[b]thieno[3,2-e]pyridine-2-carboxylic acid amide]",5 to 25

# Same assay, conditions: Dengue virus; Vero cells, MOI 0.1, harvested 48 hours post infection; read-out: Activity (EC50 class) against Dengue-2 Virus in Vero cells
row,SMILES,EC50 [µM]
1,"Nc1c(C(=O)NCCc2ccccc2)sc2nc3c(cc12)CCCCC3 [Compound 205, 3-Amino-6,7,8,9-tetrahydro-5H-1-thia-10-aza-cyclohepta[f]indene-2-carboxylic acid phenethyl-amide]",> 25
2,"CC1(C)Cc2c(c(N3CCOCC3)nc3sc4c(=O)n(-c5ccccc5)cnc4c23)CO1 [Compound 233, 2,2-Dimethyl-5-morpholin-4-yl-9-phenyl-1,4-dihydro-2H,9H-3-oxa-7-thia-6,9,11-triaza-benzo[c]fluoren-8-one]",> 25
3,"COCc1cc(C)nc2sc(C(=O)N3CCc4ccccc43)c(N)c12 [Compound 249, (3-Amino-4-methoxymethyl-6-methyl-thieno[2,3-b]pyridin-2-yl)-(2,3-dihydro-indol-1-yl)-methanone]",> 25
4,"Cc1sc(NC(=O)c2sc3nc4c(cc3c2N)CN(C)CC4)c(C#N)c1C [Compound 114, 3-Amino-6-methyl-5,6,7,8-tetrahydro-thieno[2,3-b][1,6]naphthyridine-2-carboxylic acid (3-cyano-4,5-dimethyl-thiophen-2-yl)-amide]",5 to 25
5,"COc1ccc(NC(=O)c2sc3nc(C)cc(C(F)(F)F)c3c2N)cc1 [Compound 162, 3-Amino-6-methyl-4-trifluoromethyl-thieno[2,3-b]pyridine-2-carboxylic acid (4-methoxy-phenyl)-amide]",> 25
6,"COc1ccc(CNC(=O)c2sc3nc4c(cc3c2N)CN(C)CC4)cc1OC [Compound 279, 3-Amino-6-methyl-5,6,7,8-tetrahydro-thieno[2,3-b][1,6]naphthyridine-2-carboxylic acid 3,4-dimethoxy-benzylamide]",> 25
7,"CCc1nnc(NC(=O)c2sc3nc4c(cc3c2N)CCC4)s1 [Compound 190, 3-Amino-6,7-dihydro-5H-cyclopenta[b]thieno[3,2-e]pyridine-2-carboxylic acid (5-ethyl-[1,3,4]thiadiazol-2-yl)-amide]",> 25
8,"N#Cc1cc2c(N)c(C(=O)Nc3ccccc3F)sc2nc1N [Compound 135, 3,6-Diamino-5-cyano-thieno[2,3-b]pyridine-2-carboxylic acid (2-fluoro-phenyl)-amide]",> 25
9,"CCCc1ccc2c(N)c(C(N)=O)sc2n1 [Compound 71, 3-Amino-6-propyl-thieno[2,3-b]pyridine-2-carboxylic acid amide]",5 to 25
10,"COc1ccc(CNC(=O)c2sc3nc4c(cc3c2N)CN(C)CC4)cc1 [Compound 266, 3-Amino-6-methyl-5,6,7,8-tetrahydro-thieno[2,3-b][1,6]naphthyridine-2-carboxylic acid 4-methoxy-benzylamide]",> 25
11,"N#Cc1cc2c(N)c(C(=O)Nc3ccccc3C(F)(F)F)sc2nc1N [Compound 130, 3,6-Diamino-5-cyano-thieno[2,3-b]pyridine-2-carboxylic acid (2-trifluoromethyl-phenyl)-amide]",> 25
12,"CCOC(=O)c1c(NC(=O)c2sc3nc(N)c(C#N)cc3c2N)sc2c1CCCC2 [Compound 148, 2-[(3,6-Diamino-5-cyano-thieno[2,3-b]pyridine-2-carbonyl)-amino]-4,5,6,7-tetrahydro-benzo[b]thiophene-3-carboxylic acid ethyl ester]",> 25
13,"COc1ccc(NC(=O)c2sc3nc4c(cc3c2N)CN(C(C)C)CC4)cc1 [Compound 23, 3-Amino-6-isopropyl-5,6,7,8-tetrahydro-thieno[2,3-b][1,6]naphthyridine-2-carboxylic acid (4-methoxy-phenyl)-amide]",< 5
14,"CCN(C(=O)c1sc2nc(C)cc(C)c2c1N)c1ccccc1 [Compound 102, 3-Amino-4,6-dimethyl-thieno[2,3-b]pyridine-2-carboxylic acid ethyl-phenyl-amide]",5 to 25
15,"Nc1c(C(=O)Nc2ccc(F)cc2)sc2nc3c(cc12)CCC3 [Compound 177, 3-Amino-6,7-dihydro-5H-cyclopenta[b]thieno[3,2-e]pyridine-2-carboxylic acid (4-fluoro-phenyl)-amide]",> 25
